From US4038480A, “6-Aminocarbonyl purine 3',5'-cyclic nucleotides” (ICN Pharmaceuticals, Inc., priority 1973, dated 1977)
Counter-ions that a name gives are not always drawn.

Tests used:
[1] = tested on: bovine brain C-AMP dependent kinase; conditions: relative to C-AMP; K. Muneyama et al; cited from earlier work
[2] = tested on: rabbit kidney high Km C-AMP phosphodiesterase; assay: Vulnerability to degradation (hydrolysis) by high Km C-AMP phosphodiesterase; assay type: biochemical; conditions: for resistance to hydrolysis compared with C-AMP: rabbit kidney high Km phosphodiesterase
Source text: In fact, hydrolysis to any appreciable extent could be detected only in the case of compound 8 (hydrolysis at a rate only 8% that of C-AMP).

[3] = biological target: beef heart cAMP phosphodiesterase; assay: Inhibition of beef heart cAMP phosphodiesterase; assay type: biochemical; conditions: read-out: I50, Beef Heart
Source text: (§1) The results appear in Table I below.

[4] = biological target: rabbit lung cAMP phosphodiesterase; assay: Inhibition of rabbit lung cAMP phosphodiesterase; assay type: biochemical; conditions: read-out: I50, Rabbit Lung
Source text: as §1

steroidogenisis = assay: Activation of steroidogenesis
lipolysis = assay: Activation of lipolysis
[5] = Lowering of blood pressure; conditions: in vivo
[6] = biological target: bovine brain C-AMP dependent kinase; assay: Activation of C-AMP dependent protein kinase; assay type: biochemical; conditions: for kinase activation compared with C-AMP: bovine brain kinase, comparison in words
Experimental: Preferred carbamoyl compounds prepared as in the preceding examples were assayed for ability to activate protein kinase by the procedure described in K. Muneyama et al, Biochem. 10, 2390 (1971), using bovine brain C-AMP dependent kinase purified according to Kuo & Greengard, in Proc. Nat. Acad. Sci. U.S.A. 64, 1349 (1969). […] K. Muneyama et al, supra.

adenyl cyclase = assay: Inhibition of adenyl cyclase; assay type: biochemical
[7] = Inotropic action (cardiac output, heart rate); assay type: in vivo; conditions: inotropic agent

Row | resistance to hydrolysis compared with C-AMP [2] | IC50 [3] [µM] | IC50 [4] [µM] | SMILES | activation of steroidogenesis, concentration compared with C-AMP (steroidogenisis) | activation of lipolysis, concentration compared with C-AMP (lipolysis) | lowering of blood pressure [5] | further results
1 |  |  |  | Nc1ncnc2c1nc(S)n2[C@@H]1O[C@@H]2COP(=O)(O)O[C@H]2[C@H]1O [8-thio derivative of C-AMP] |  |  |  | Ka' (highest value previously reported in the literature) [1]: 3.77
2 | more resistant to hydrolysis than C-AMP |  |  | CNC(=O)Nc1ncnc2c1ncn2[C@@H]1O[C@@H]2COP(=O)(O)O[C@H]2[C@H]1OC(=O)NC [Compound 2, N^6, 2'-O-bis-(N-Methylcarbamoyl)adenosine 3',5'-cyclic phosphate sodium salt] |  |  |  | 
3 | more resistant to hydrolysis than C-AMP |  |  | CCCNC(=O)Nc1ncnc2c1ncn2[C@@H]1O[C@@H]2COP(=O)(O)O[C@H]2[C@H]1OC(=O)NCCC [Compound 3, N^6, 2'-O-bis-(N-Propylcarbamoyl)adenosine 3', 5'-cyclic phosphate sodium salt] |  |  |  | 
4 | more resistant to hydrolysis than C-AMP | 93 | 190 | O=C(Nc1ccccc1)Nc1ncnc2c1ncn2[C@@H]1O[C@@H]2COP(=O)(O)O[C@H]2[C@H]1OC(=O)Nc1ccccc1 [Compound 4, N^6, 2'-O-bis-(N-Phenylcarbamoyl)adenosine 3',5'-cyclic phosphate sodium salt] |  |  |  | 
5 | more resistant to hydrolysis than C-AMP |  |  | CNC(=O)Nc1ncnc2c1ncn2[C@@H]1O[C@@H]2COP(=O)(O)O[C@H]2[C@H]1O [Compound 5, N^6-(N-Methylcarbamoyl) adenosine 3',5'-cyclic phosphate] | at concentrations substantially lower than C-AMP | at concentrations substantially lower than C-AMP | act to lower blood pressure | 
6 | more resistant to hydrolysis than C-AMP |  |  | CCCNC(=O)Nc1ncnc2c1ncn2[C@@H]1O[C@@H]2COP(=O)(O)O[C@H]2[C@H]1O [Compound 6, N^6-(N-Propylcarbamoyl) adenosine 3',5'-cyclic phosphate] | at concentrations substantially lower than C-AMP | at concentrations substantially lower than C-AMP | act to lower blood pressure | kinase activation compared with C-AMP [6]: superior in kinase activation to C-AMP itself
7 | more resistant to hydrolysis than C-AMP | 22 | 160 | O=C(Nc1ccccc1)Nc1ncnc2c1ncn2[C@@H]1O[C@@H]2COP(=O)(O)O[C@H]2[C@H]1O [Compound 7, N^6-(N-Phenylcarbamoyl)adenosine 3',5'-cyclic phosphate] | at concentrations substantially lower than C-AMP | at concentrations substantially lower than C-AMP |  | Ka' (Ka for C-AMP/Ka for test compound) ([6]; Ka from Lineweaver-Burk plot, relative to C-AMP): 4.9; kinase activation compared with C-AMP [6]: superior in kinase activation to C-AMP itself; activation of protein kinase relative to C-AMP (times better) ([6]; bovine brain protein kinase, relative to C-AMP): approximately five; inhibition of adenyl cyclase (adenyl cyclase): inhibit adenyl cyclase; effect on heart rate [7]: without deleteriously affecting heart rate; persistence of inotropic action [7]: persistent in action; increase of cardiac output compared with aminophylline ([7]; compared with aminophylline): the equal of aminophylline in increasing cardiac output
8 | more resistant to hydrolysis than C-AMP | 130 | 210 | CCOC(=O)Nc1ncnc2c1ncn2[C@@H]1O[C@@H]2COP(=O)(O)O[C@H]2[C@H]1O [Compound 8, N^6-(Ethoxycarbonyl)adenosine 3'5'-cyclic phosphate] | at concentrations substantially lower than C-AMP | at concentrations substantially lower than C-AMP | act to lower blood pressure | rate of hydrolysis relative to C-AMP ([2]; rate as % that of C-AMP): 8%
9 | more resistant to hydrolysis than C-AMP | 260 | 130 | CNC(=O)Nc1ncnc2c1nc(Br)n2[C@@H]1O[C@@H]2COP(=O)(O)O[C@H]2[C@H]1OC(=O)NC [Compound 11, 8-Bromo-N^6,2'-O-bis-(N-methylcarbamoyl)adenosine 3',5'-cyclic phosphate] |  |  |  | 
10 | more resistant to hydrolysis than C-AMP | 22 | 10 | O=C(Nc1ccccc1)Nc1ncnc2c1nc(SCc1ccccc1)n2[C@@H]1O[C@@H]2COP(=O)(O)O[C@H]2[C@H]1OC(=O)Nc1ccccc1 [Compound 12, 8-Benzylthio-N^6,2'-O-bis-(N-phenylcarbamoyl) adenosine 3',5'-cyclic phosphate sodium salt] |  |  |  | 
11 | more resistant to hydrolysis than C-AMP | 14 | 21 | O=C(Nc1ccccc1)Nc1ncnc2c1nc(SCc1ccccc1)n2[C@@H]1O[C@@H]2COP(=O)(O)O[C@H]2[C@H]1O [Compound 15, 8-Benzylthio-N^6-(N-phenylcarbamoyl)adenosine 3',5'-cyclic phosphate] |  |  | act to lower blood pressure | kinase activation compared with C-AMP [6]: superior in kinase activation to C-AMP itself; inhibition of adenyl cyclase (adenyl cyclase): inhibit adenyl cyclase
12 | more resistant to hydrolysis than C-AMP |  |  | CNC(=O)Nc1ncnc2c1nc(S)n2[C@@H]1O[C@@H]2COP(=O)(O)O[C@H]2[C@H]1OC(=O)NC [Compound 16, N^6,2'-O-bis-(N-Methylcarbamoyl)-8-mercaptoadenosine 3',5'-cyclic phosphate sodium salt] |  |  |  | 

Row | SMILES | resistance to hydrolysis compared with C-AMP [2] | IC50 [3] [µM] | IC50 [4] [µM] | activation of steroidogenesis, concentration compared with C-AMP (steroidogenisis) | activation of lipolysis, concentration compared with C-AMP (lipolysis) | lowering of blood pressure [5] | further results
13 | Cn1c(=O)c2[nH]cnc2n(C)c1=O [Theophylline, reference compound] |  | 130 | 230 |  |  |  | 
